This assay deals with DU145 (prostate cancer) and MDA.MB213 (Triple Negative breast cancer) cells. The experiment in a line: MTT cell growth inhibition assay on human tumor cell lines. The note with it: 48 hours exposition; for IC50: read-out: DL50 (lethal dose 50, dose at which there is 50% of cell growth inhibition). The assay is classed as cell-based. The source says: FIG. 1 the evaluation of the inhibitory activity of CAM2 (a), CAM3 (b) and CAM4 (c) on the cell growth of DU145 cells in presence of different concentrations, determined by MTT assay. The cell viability was expressed as percentage of proliferated cells with respect to the cells treated with the different compounds and the same cells used as control and
FIG. 2 the evaluation of the inhibitory activity of CAM2 (a), CAM3 (b) and CAM4 (c) on the cell growth of MDA.MB231 cells in presence of different concentrations, determined by MTT assay. The cell viability was expressed as percentage of proliferated cells with respect to the cells treated with the different compounds and the same cells used as control.
MDA.MB213—Human cell line of breast cancer acquired by ATCC (American Tissue Cell Colture—ATCC® HTB-26™), triple negative for ER receptor
DU145—Human cell line of prostate cancer acquired by ATCC (American Tissue Cell Colture—ATCC® HTB-81™)
MTT Cell Proliferation Assay Kit—Purchased by TREVIGEN—Catalog #4890-025-K
The compound was dissolved in a solution of DMSO concentrated at 100%, therefrom the dilutions programmed according to the scheme shown in figure A and B are obtained and in 96-multiwell plates 2×10^4 cells are deposited (plated).
After 24 hours the compounds under study in contact with the cells at the pre-established concentrations are used, in order to determine the lethal dose 50, that is the dose thereat there is 50% of cell growth inhibition.
After 48 hours of exposition to our compound, the growth inhibition effect is determined by means of a colorimetric assay.
The MTT assay is a measurement of sensitivity of cell proliferation based upon the decrease in the salt of tetrazolium, 3, [4,5-dimethyithiazol-2-]-2,5-diphenyl-bromide-tetrazolium (MTT).
Changes in the cell proliferative activity caused by our compounds can be quantified with MTT. MTT is reduced to an insoluble colouring agent, by the mitochondrial enzymes associated to the metabolic activity. MTT reduction is mainly due to the glycolytic activity inside the cell associated to the presence of NADH and NADPH.
The compound was dissolved in a solution of DMSO concentrated at 100%, therefrom the dilutions programmed according to the scheme shown in figure A and B are obtained, and in 96-multiwell plates 2×10^4 cells are deposited (plated).
After 24 hours the compounds under study in contact with the cells at pre-established concentrations are used, in order to determine the lethal dose 50, that is the dose thereat there is 50% of cell growth inhibition.
The MTT assay is a measurement of cell proliferation sensitivity based upon the reduction in the salt of tetrazolium, 3, [4,5-dimethylthiazol-2-]-2,5-diphenyl bromide-tetrazolium (MTT). Changes in the cell proliferative activity caused by our compounds can be quantified with MTT. MTT is reduced to an insoluble colouring agent, by the mitochondrial enzymes associated to the metabolic activity. MTT reduction is mainly due to the glycolytic activity inside the cell associated to the presence of NADH and NADPH.
The compound was dissolved in a solution of DMSO concentrated at 100%, therefrom the dilutions programmed according to the scheme shown in A e B are obtained, in 96-multiwell plates 2×10^4 cells are deposited (plated).
MTT assay is a measurement of the cell proliferation sensitivity based upon the reduction in the salt of tetrazolium, 3, [4,5-dimethylthiazol-2-]-2,5-diphenyl bromide-tetrazolium (MTT). Changes in the cell proliferative activity caused by our compounds can be quantified with MTT. MTT is reduced to an insoluble colouring agent, by the mitochondrial enzymes associated to the metabolic activity. MTT reduction is mainly due to the glycolytic activity inside the cell associated to the presence of NADH and NADPH.

Setting [1] is: cell line not specified (DU145 / MDA.MB213).
Setting [2] is: 5 μM, cell line not specified (DU145 / MDA.MB213).

For [Cp-CH2—C6H5—OCH3)]ScCl2 [CAM3], the growth inhibition runs as follows: (10 μM (higher concentrations), cell line not specified) 95%; (lower concentrations (not specified), cell line not specified) 40%. Further, the “DL50 (lethal dose 50, dose at which there is 50% of cell growth inhibition)” value under setting [1] was 5/10.
As to [Cp-CH2—C6H5—OCH3]2ScCl [CAM4], the growth inhibition runs as follows: under setting [2], 14%; (40 μM (higher concentrations), cell line not specified) 88%. The IC50 under setting [1] worked out at 20 µM.
Regarding [Cp-CH2—C6H5—OCH3]2YCl [CAM2], the growth inhibition was found to be 58% under setting [2] and 95% (20 μM, cell line not specified (DU145 / MDA.MB213)). For the same substance, the IC50 under setting [1] was below 5 µM.

The record behind these values is patent US10675300B2, “Group 3 metal compounds and use thereof in the treatment of solid tumors” (UNIVERSITÀ DEGLI STUDI DI SALERNO, priority 2016, dated 2020).
